This is an account of results in patent US9216964B2, “Hedgehog pathway modulators” (Novartis AG, priority 2008, dated 2015).

The test system of this assay is hedgehog signaling pathway. Nature of the assay: Gli-Luc Reporter Assay for Hh Pathway Inhibition (TMHh-12 cells, pTA-8×Gli-Luc reporter). Format: cell-based, Mouse. On the procedure: Compounds of the present invention are assayed to evaluate their capacity to inhibit the hedgehog signaling pathway.
Gli-Luc Reporter Assay for Hh Pathway Inhibition
Mouse TM3 cells (obtained from American Type Culture Collection, ATCC, Manassas, Va.) are cultured in DMEM/F12 medium (Gibco/Invitrogen, Carlsbad, Calif.) supplemented with 5% heat inactivated horse serum and 2.5% FBS (Gibco/Invitrogen, Carlsbad, Calif.), 50 unit/mL penicillin and 50 μg/mL of streptomycin (Gibco/Invitrogen, Carlsbad, Calif.) at […] with 5% CO2 in air atmosphere. TM3 cells were transfected with pTA-8×Gli-Luc reporter plasmid. A stably transfected clone termed TMHh-12 was selected. […] To evaluate the IC50s of the antagonists, 8000 TMHh-12 cells were plated into each wells in 384-well plates with 50% DMEM/F12 medium supplemented with 2% FBS. After 12 hours, Hh pathway is activated by adding recombinant mouse Shh protein (expressed in E. coli, 8 μg/mL) or by adding Smo agonists. The testing compounds are added into plates with different concentrations. After 48 hours, the firefly luciferase luciferase activities are assayed with the Bright-Glo™ Luciferase Assay System (Promega, Madison, Wis.). The IC50 is measured when the effect of the compound reduces the luminescence signal by 50%. Toxicity of these compounds are evaluated in TM3 cells using CellTiter Glo assays or by TM3-Luc cell line (a TM3 cell stably transfected with a constitutive luciferase expression vector).

[1] abbreviates: Mus musculus, TMHh12, enzymatic and cellular assays for the inhibition of hedgehog signaling pathways, read-out: IC50 Ranges.
Setting [2] is: Mus musculus, TMHh12, Ag1.5 1 nM, read-out: Hedgehog Inhibition IC50 (nM) (Ag1.5 1 nM).
Where [3] appears, read: enzymatic and cellular assays for the inhibition of hedgehog signaling pathways, read-out: IC50 Ranges.

Read-outs that look alike come from different tables or passages of the source. Where only a bound is given, the exact number is not on record here.

In the case of `[O-][S+]1CCC([N+]2([O-])CCc3c(cccc3Nc3ccc(Cl)c(-c4ncc(-c5ccccc5)[nH]4)c3)C2)CC1` (centres unmarked) [Compound 26], under setting [1], the IC50 fell in the range of 1 to 10 nM.

Turning to `Cc1ccc(Nc2cccc3c2CCN(S(C)(=O)=O)C3)cc1-c1ccc(-c2nnn[nH]2)cc1` [Compound 143], the IC50 by setting is: under setting [2], greater than 10000 nM; under setting [1], greater than 10000 nM.

For `Cc1ccc(Nc2cccc3c2CCN(S(C)(=O)=O)C3)cc1-c1ccc(C#N)cn1` [Compound 154], the IC50 under setting [1] was 1 to 10 nM.

On to `CCOc1ccc(-c2cc(Nc3cccc4c3CCN(C3CCS(=O)(=O)C3)C4)ccc2C)nn1` (centres unmarked) [Compound 323], for which, under setting [3], the IC50 was 1 to 10 nM.

With `Cc1ccc(Nc2cccc3c2CCN(C2CCS(=O)(=O)C2)C3)cc1-c1ncccc1F` (centres unmarked) [Compound 268], the IC50 under setting [1] lay in the range of 0.001 to 1 nM.

For `CC(C(=O)O)N1CCc2c(cccc2Nc2ccc(Cl)c(-c3ncc(-c4ccccc4)[nH]3)c2)C1` (centres unmarked) [Compound 58], the IC50 under setting [1] was in the range of 1 to 10 nM.

Regarding `Cc1ccc(Nc2cccc3c2CCN(S(C)(=O)=O)C3)cc1-c1cccc(F)n1` [Compound 218], under setting [1], the IC50 lay within 10 to 100 nM.

`Clc1ccc(Nc2cccc3c2CCN(C2CCOCC2)C3)cc1-c1ncc(-c2ccccc2)[nH]1` [Compound 29]: the IC50 under setting [1] is 0.001 to 1 nM.

As to `CCOc1ccc(-c2cc(Nc3cccc4c3CCN(C3CCS(=O)(=O)C3)C4)ccc2C)nn1` (centres unmarked) [Compound 296], under setting [1], the IC50 fell in the range of 1 to 10 nM.

Consider `Cc1cnc(-c2cc(Nc3cccc4c3CCN(S(C)(=O)=O)C4)ccc2C)nc1` [Compound 216], for which the IC50 is, setting by setting: under setting [2], 15 nM; under setting [1], 10 to 100 nM.

Take `COc1cnc(-c2cc(Nc3cccc4c3CCN(CCS(C)(=O)=O)C4)ccc2C)cn1` [Compound 264]: under setting [1], the IC50 lay within 1 to 10 nM.

Take `O=C(O)C1(C(=O)N2CCc3c(cccc3Nc3ccc(Cl)c(-c4ncc(-c5ccccc5)[nH]4)c3)C2)CCC1` [Compound 69]: the IC50 under setting [2] was found to be 1.4 nM and the IC50 under setting [1] is 1 to 10 nM.

`Clc1ccc(Nc2cccc3c2CCNC3)cc1-c1ncc(-c2ccccc2)[nH]1` [Compound 57]: the IC50 by setting is: under setting [2], 22.7 nM; under setting [1], 10 to 100 nM.

In the case of `Cc1ccc(-c2cc(Nc3ncnc4c3CCN(S(C)(=O)=O)C4)ccc2C)nc1` [Compound 248], the IC50 under setting [1] was 1 to 10 nM.

Regarding `O=C(C(O)CO)N1CCc2c(cccc2Nc2ccc(Cl)c(-c3ncc(-c4ccccc4)[nH]3)c2)C1` (centres unmarked) [Compound 9], under setting [1], the IC50 was 0.001 to 1 nM.

For `Cc1cccc(-c2cc(Nc3cccc4c3CCN(S(C)(=O)=O)C4)ccc2C)n1` [Compound 191], the IC50 under setting [1] fell in the range of 1 to 10 nM.

As to `COc1ccc(-c2nc(Nc3cccc4c3CCN(S(=O)(=O)C(C)C)C4)ccc2C)nn1` [Compound 319], the IC50 under setting [1] lay within 1 to 10 nM.

Consider `CS(=O)(=O)N1CCc2c(cccc2Nc2cccc(-c3ccc(C#N)cc3)c2)C1` [Compound 132], for which the IC50 under setting [1] fell in the range of 10 to 100 nM.

For `O=C([C@H](O)CO)N1CCc2c(cccc2Nc2ccc(Cl)c(-c3nc(-c4ccccc4)c[nH]3)c2)C1` [Compound 38], the IC50 under setting [1] fell in the range of 0.001 to 1 nM.

Take `Cc1ccc(-c2cc(Nc3cccc4c3CCN(CC(C)(F)F)C4)ccc2C)nc1` [Compound 224]: under setting [1], the IC50 was 0.001 to 1 nM.

For the molecule `Cc1ccc(-c2cc(Nc3cccc4c3CCN([C@H]3CCS(=O)(=O)C3)C4)ccc2C)nc1` [Compound 280], the IC50 under setting [1] lay within 0.001 to 1 nM.

For the molecule `COC(=O)c1ccc(-c2cc(Nc3cccc4c3CCN(S(C)(=O)=O)C4)ccc2C)cc1` [Compound 141], the IC50 under setting [1] was 100 to 1000 nM.

On to `C[C@H](C(=O)O)N1CCc2c(cccc2Nc2ccc(Cl)c(-c3nc(-c4ccccc4)c[nH]3)c2)C1` [Compound 78], for which the IC50 under setting [1] was 1 to 10 nM.

Take `CC1(N2CCc3c(cccc3Nc3ccc(Cl)c(-c4ncc(-c5ccccc5)[nH]4)c3)C2)CC1` [Compound 80]: under setting [1], the IC50 fell in the range of 1 to 10 nM.

Regarding `Cc1ccc(Nc2cccc3c2CCN(C2CS(=O)(=O)C2)C3)cc1-c1ncccc1F` [Compound 275], the IC50 under setting [1] fell in the range of 1 to 10 nM.

As to `CCOc1ccc(-c2cc(Nc3cccc4c3CCN(C3CS(=O)(=O)C3)C4)ccc2C)nn1` [Compound 295], the IC50 under setting [1] lay in the range of 1 to 10 nM.

For the molecule `CCOc1ccc(-c2nc(Nc3cccc4c3CCN(C3CS(=O)(=O)C3)C4)ccc2C)nn1` [Compound 329], the IC50 under setting [1] lay in the range of 10 to 100 nM.

On to `Cc1ccc(Nc2cccc3c2CCN(C2CCS(=O)(=O)C2)C3)cc1-c1cc2ccccc2cn1` (centres unmarked) [Compound 324], for which, under setting [1], the IC50 fell in the range of 0.001 to 1 nM.

On to `CCS(=O)(=O)CCN1CCc2c(cccc2Nc2ccc(C)c(-c3ccc(OC)nn3)c2)C1` [Compound 282], for which, under setting [1], the IC50 lay within 1 to 10 nM.

For `O=C(N1CCc2c(cccc2Nc2ccc(Cl)c(-c3ncc(-c4ccccc4)[nH]3)c2)C1)C1(O)CC1` [Compound 74], the IC50 under setting [1] lay in the range of 0.001 to 1 nM.

Take `Cc1ccc(Nc2cccc3c2CCN([C@H]2CCS(=O)(=O)C2)C3)cc1-c1ncccc1F` [Compound 286]: the IC50 under setting [1] fell in the range of 0.001 to 1 nM.

With `Cc1ccc(Nc2nccc3c2CCN(S(C)(=O)=O)C3)cc1-c1ccc(F)cn1` [Compound 244], the IC50 under setting [1] was 100 to 1000 nM.

Regarding `Cc1ccc(Nc2cccc3c2CCN(S(C)(=O)=O)C3)cc1C(=O)Nc1ccc(OC(F)(F)F)cc1` [Compound 187], the IC50 was 1.1 nM under setting [2] and 1 to 10 nM under setting [1].

As to `CCOc1cnc(-c2nc(Nc3cccc4c3CCN(S(C)(=O)=O)C4)ccc2C)cn1` [Compound 333], the IC50 under setting [1] was 10 to 100 nM.

With `Cc1ccc(Nc2cccc3c2CCN(S(C)(=O)=O)C3)cc1C(=O)Nc1ccccc1` [Compound 159], the IC50 is 0.1 nM under setting [2] and 0.001 to 1 nM under setting [1].

On to `COc1ccc(-c2cc(Nc3cccc4c3CCN(CCS(C)(=O)=O)C4)ccc2C)nn1` [Compound 258], for which the IC50 under setting [1] fell in the range of 1 to 10 nM.

Regarding `Cc1ccc(Nc2cccc3c2CCN([C@H]2CCS(=O)(=O)C2)C3)cc1-c1ncccc1F` [Compound 343], the IC50 under setting [3] is 0.001 to 1 nM.

Regarding `C[C@@H](O)C(=O)N1CCc2c(cccc2Nc2ccc(Cl)c(-c3ncc(-c4ccccc4)[nH]3)c2)C1` [Compound 8], the IC50 under setting [1] is 0.001 to 1 nM.

On to `Cc1ccc(Nc2cccc3c2CCN(CCS(C)(=O)=O)C3)cc1-c1ccc(F)cn1` [Compound 232], for which the IC50 under setting [1] was in the range of 1 to 10 nM.

For `Cc1ccc(Nc2cccc3c2CCN(C2CCS(=O)(=O)CC2)C3)cc1-c1ccc(F)cn1` [Compound 234], the IC50 under setting [1] lay within 0.001 to 1 nM.

As to `Cc1ccc(Nc2cccc3c2CCN(CC(C)(C)F)C3)cc1-c1ccc(C#N)cn1` [Compound 198], under setting [1], the IC50 fell in the range of 0.001 to 1 nM.

In the case of `CN1CCC(N2CCc3c(cccc3Nc3ccc(Cl)c(-c4ncc(-c5ccccc5)[nH]4)c3)C2)CC1` [Compound 41], the IC50 under setting [1] is 1 to 10 nM.

With `OC[C@H](O)[C@@H](O)CN1CCc2c(cccc2Nc2ccc(Cl)c(-c3ncc(-c4ccccc4)[nH]3)c2)C1` [Compound 48], under setting [1], the IC50 fell in the range of 1 to 10 nM.

With `CC(=O)N1CCC(N2CCc3c(cccc3Nc3ccc(Cl)c(-c4ncc(-c5ccccc5)[nH]4)c3)C2)CC1` [Compound 11], under setting [1], the IC50 lay in the range of 0.001 to 1 nM.

Turning to `Cc1ccc(Nc2cccc3c2CCN(S(C)(=O)=O)C3)cc1-c1ccc(C(=O)N(CCO)CCO)cc1` [Compound 147], under setting [1], the IC50 fell in the range of 1000 to 10000 nM.

Regarding `CS(=O)(=O)N1CCc2c(cccc2Nc2cc(C(=O)Nc3ccccc3)c(Cl)cn2)C1` [Compound 203], the IC50 under setting [1] fell in the range of 1 to 10 nM.

Regarding `Cc1ccc(Nc2nccc3c2CCN(S(C)(=O)=O)C3)cc1-c1ccc(C#N)cc1` [Compound 125], the IC50 under setting [1] lay within 10 to 100 nM.

As to `COc1cccc(-c2cnc(-c3cc(Nc4cccc5c4CCN(S(C)(=O)=O)C5)ccc3C)[nH]2)n1` [Compound 104], under setting [1], the IC50 lay within 0.001 to 1 nM.

In the case of `CC(C)(C(=O)O)C(=O)N1CCc2c(cccc2Nc2ccc(Cl)c(-c3ncc(-c4ccccc4)[nH]3)c2)C1` [Compound 67], under setting [1], the IC50 lay within 1 to 10 nM.

For the molecule `CS(=O)(=O)CC(=O)N1CCc2c(cccc2Nc2ccc(Cl)c(-c3ncc(-c4ccccc4)[nH]3)c2)C1` [Compound 7], the IC50 was 0.25 nM under setting [2] and 0.001 to 1 nM under setting [1].

With `Cc1ccc(-c2cc(Nc3cccc4c3CCN(CC(C)(C)C)C4)ccc2C)nc1` [Compound 213], under setting [1], the IC50 is 1 to 10 nM.

In the case of `Cc1ccc(Nc2cccc3c2CCN(S(C)(=O)=O)C3)cc1-c1ccccc1` [Compound 115], the IC50 reads like this: under setting [2], 362 nM; under setting [1], 100 to 1000 nM.

Turning to `Clc1ccc(Nc2cccc3c2CCN(CC2CCCCC2)C3)cc1-c1ncc(-c2ccccc2)[nH]1` [Compound 23], the IC50 is, setting by setting: under setting [2], 2 nM; under setting [1], 1 to 10 nM.

On to `Cc1ccc(-c2cc(Nc3ncnc4c3CCN(C3CCS(=O)(=O)CC3)C4)ccc2C)nc1` [Compound 277], for which the half-inhibitory concentration (IC50) under setting [1] was 10 to 100 nM.

As for `Cc1ccc(Nc2cccc3c2CCN(CCS(C)(=O)=O)C3)cc1-c1ccc(C#N)cn1` [Compound 245], under setting [1], the IC50 lay within 1 to 10 nM.

Regarding `Cc1ccc(Nc2cccc3c2CCN(S(C)(=O)=O)C3)cc1-c1cnc(N(C)C)cn1` [Compound 253], the IC50 under setting [1] fell in the range of 1 to 10 nM.

Regarding `Clc1ccc(Nc2cccc3c2CCN(C2CCCCC2)C3)cc1-c1ncc(-c2ccccc2)[nH]1` [Compound 22], the concentration for half-maximal inhibition (IC50) under setting [1] was 1 to 10 nM.

As for `Cc1ccc(Nc2cccc3c2CCN(S(C)(=O)=O)C3)cc1OCc1ccc(C#N)cc1` [Compound 166], the IC50 under setting [1] is 10 to 100 nM.

In the case of `CN(C)Cc1ccc(Nc2cccc3c2CCN(S(C)(=O)=O)C3)cc1-c1ccc(C#N)cc1` [Compound 179], the IC50 under setting [1] lay in the range of 100 to 1000 nM.
